“And” between values parts separate entries of the source, which are not always exact repeats. Equal entries are not always repeated.
Assays:
[1] = target: Aurora B (Homo sapiens, UniProt Q96GD4); assay: Recombinant mitotic kinase assay, Aurora B; type: biochemical; conditions: recombinant kinases
Description: (§1) […] assays were performed with recombinant protein of the indicated mitotic kinase (left) and AMPK family kinases (right) in the presence of THZ-4-63-1. […] Cells were treated with nocodazole (100 ng/ml) for 18 h or not treated (Asyn., asynchronous). Nocodazole-arrested mitotic cells (M) were isolated via shake-off. The attached cells enriched in G2 phase (G2) were harvested. A portion of the mitotic cells were washed off nocodazole and released into G1 phase after 4 hours of incubation (G1). […] In Panel D, mitotic lysates were prepared from the indicated cells, and treated with λ-phosphatase at 30° C. In Panel E, nocodazole-arrested mitotic cells were treated with increasing concentration of THZ-4-63-1 for 30 min. Cell lysates were subjected to immunoblotting.
(§2) To discover a selective MELK inhibitor, a few molecule scaffolds with the potential of binding to MELK were identified, including 2,4-disubstituted pyrimidines and benzonaphthyridinones. […] To investigate if THZ-4-63-1 confers selective inhibition on MELK, we tested its effect on other mitotic kinases. In assays using recombinant kinases, MELK kinase activity was 20-fold more sensitive to THZ-4-63-1, than that of Aurora A, Aurora B, CDK1, or PLK1 (FIG. 1B).

[2] = target: T1, NUAK1 (Homo sapiens, UniProt O60285); assay: Recombinant AMPK family kinase assay, NUAK1; type: biochemical; conditions: recombinant kinases
T1 sequence (O60285 1-661): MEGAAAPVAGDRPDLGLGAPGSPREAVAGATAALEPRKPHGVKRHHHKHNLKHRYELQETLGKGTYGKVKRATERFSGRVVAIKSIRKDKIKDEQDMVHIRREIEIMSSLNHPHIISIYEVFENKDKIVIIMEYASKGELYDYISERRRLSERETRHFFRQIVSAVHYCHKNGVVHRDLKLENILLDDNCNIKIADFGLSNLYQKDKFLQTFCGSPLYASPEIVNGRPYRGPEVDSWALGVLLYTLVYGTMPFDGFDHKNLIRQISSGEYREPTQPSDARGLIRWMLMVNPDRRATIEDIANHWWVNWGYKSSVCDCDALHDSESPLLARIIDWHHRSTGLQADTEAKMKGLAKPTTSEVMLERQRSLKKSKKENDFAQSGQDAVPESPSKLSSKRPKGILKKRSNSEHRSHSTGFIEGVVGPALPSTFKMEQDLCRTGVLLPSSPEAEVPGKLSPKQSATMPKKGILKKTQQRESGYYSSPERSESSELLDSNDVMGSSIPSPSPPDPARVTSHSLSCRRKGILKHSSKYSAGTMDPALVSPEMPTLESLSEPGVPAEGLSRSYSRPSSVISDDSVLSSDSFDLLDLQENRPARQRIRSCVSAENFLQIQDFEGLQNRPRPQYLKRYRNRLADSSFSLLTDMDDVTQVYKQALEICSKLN
Description: as §1, §2

[3] = target: MARK1 (Homo sapiens, UniProt Q9P0L2); assay: Recombinant AMPK family kinase assay, MARK1; type: biochemical; conditions: recombinant kinases
Description: as §1, §2

[4] = tested on: mitotic cells; assay: Mitotic cell death, time-lapse imaging; type: cell-based
Description: U2OS-GFP-H2B cells were treated with vehicle control (0.02% DMSO, v/v) or 1 μM THZ-4-63-1, and subjected to live imaging. Time is given in hours:minutes, relative to the initial time of drug treatment. The arrow points to chromosomes that haven't incorporated into the metaphase plate. […] MDA-MB-468 cells expressing tet-on-shMELK and GFPH2B cells were treated with doxycycline for three days, before subjected to live imaging. Panel D contains images of immunoblotting of lysates from cells treated as in Panel C. Panel E contains images showing mitotic cell death in a cell treated with THZ-4-63-1. The table indicates the quantification of cell death events. Panel F contains images showing that treatment with THZ-4-63-1 impairs chromosome alignment. Cells were treated with DMSO control, or THZ-4-63-1 (5 μM) for 4 hours, followed by MG132 (10 μM) for 1 h. Cells were fixed and stained with anti-CREST, anti-α-tubulin, and DAPI to visualize chromosomes and kinetochores. The histogram indicates the quantifications of cells in metaphase with misaligned chromosomes.
Perturbation of normal mitotic kinetic can lead to various cellular outcomes including cell death.

[5] = tested on: U2OS-(H2B-GFP) cells; assay: Mitotic slippage, time-lapse imaging of U2OS-(H2B-GFP) cells; type: cell-based, human; conditions: 5 μM, 4 h exposure
Description: Mitotic cells were treated with THZ-4-63-1 at indicated concentrations for 4 h. Cells were collected for immunoblotting. Panel B contains time-lapse images of U2OS-(H2B-GFP) cells treated with THZ-4-63-1 (5 μM). […] Panel C contains blots showing proteasome-mediated degradation of Cyclin B1, Aurora B and MELK in THZ-4-63-1-induced mitotic slippage. Mitotic cells were treated as in Panel A with THZ-4-63-1 (5 μM), or MG132 (10 μM), or both for 4 h. Panel D contains a graph showing quantification of cell proliferation in the indicated breast cancer cell lines, which were treated with vehicle control or THZ-4-63-1 for one week (Top) and also contains bright-field images acquired from control cells or cells treated with THZ-4-63-1 (111 nM) (Bottom). […] Cells were treated with indicated drugs, and harvested in ten days for quantification of cell growth. The bold curve depicts the theoretic prediction of an additive action between paclitaxel and THZ-4-63-1.
Centromeric localization of CPC has been implicated in checkpoint signaling^8. […] We further found an impaired spindle checkpoint in cells with MELK knockdown (FIG. 9C).

[6] = target: MELK (Homo sapiens, UniProt Q14680); assay: Z′-LYTE biochemical assay, MELK inhibition; set-up: purchased Life Technologies; conditions: 25 uM ATP concentration; read-out: MELK IC50 as determined by Z′-LYTE biochemical assay
Description: The invention also provides methods for inhibiting MELK, comprising contacting MELK with a compound of the invention in an amount effective to inhibit MELK. In certain embodiments, the method is conducted in vitro. In certain embodiments, the method is conducted in vivo. Inhibition of MELK can be determined by the Z′-LYTE® biochemical assay from Life Technologies (Life Technologies Z′-LYTE® Screening Protocol and Assay Conditions, June 2012, incorporated herein by reference).
Generally, IC50 against MELK was determined by Z′-LYTE® biochemical assay and are measured in nM at 25 uM ATP concentration.

Sequence of MELK (Q14680 whole entry): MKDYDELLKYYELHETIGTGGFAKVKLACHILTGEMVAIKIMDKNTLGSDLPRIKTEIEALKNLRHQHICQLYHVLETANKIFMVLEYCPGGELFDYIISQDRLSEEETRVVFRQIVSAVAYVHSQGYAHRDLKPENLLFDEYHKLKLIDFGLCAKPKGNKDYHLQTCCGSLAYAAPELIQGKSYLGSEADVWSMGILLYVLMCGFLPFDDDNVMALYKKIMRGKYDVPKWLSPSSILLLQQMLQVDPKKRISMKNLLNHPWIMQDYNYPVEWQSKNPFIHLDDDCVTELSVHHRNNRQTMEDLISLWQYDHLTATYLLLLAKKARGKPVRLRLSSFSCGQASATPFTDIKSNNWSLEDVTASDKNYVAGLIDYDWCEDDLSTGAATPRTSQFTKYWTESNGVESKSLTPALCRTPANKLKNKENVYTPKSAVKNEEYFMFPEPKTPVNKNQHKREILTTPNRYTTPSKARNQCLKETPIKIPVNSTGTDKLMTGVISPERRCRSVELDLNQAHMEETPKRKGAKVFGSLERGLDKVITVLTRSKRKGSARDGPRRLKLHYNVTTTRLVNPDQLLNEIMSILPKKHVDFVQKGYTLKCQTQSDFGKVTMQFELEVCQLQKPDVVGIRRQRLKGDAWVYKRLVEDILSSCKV
Sequence of MARK1 (Q9P0L2 whole entry, species assumed): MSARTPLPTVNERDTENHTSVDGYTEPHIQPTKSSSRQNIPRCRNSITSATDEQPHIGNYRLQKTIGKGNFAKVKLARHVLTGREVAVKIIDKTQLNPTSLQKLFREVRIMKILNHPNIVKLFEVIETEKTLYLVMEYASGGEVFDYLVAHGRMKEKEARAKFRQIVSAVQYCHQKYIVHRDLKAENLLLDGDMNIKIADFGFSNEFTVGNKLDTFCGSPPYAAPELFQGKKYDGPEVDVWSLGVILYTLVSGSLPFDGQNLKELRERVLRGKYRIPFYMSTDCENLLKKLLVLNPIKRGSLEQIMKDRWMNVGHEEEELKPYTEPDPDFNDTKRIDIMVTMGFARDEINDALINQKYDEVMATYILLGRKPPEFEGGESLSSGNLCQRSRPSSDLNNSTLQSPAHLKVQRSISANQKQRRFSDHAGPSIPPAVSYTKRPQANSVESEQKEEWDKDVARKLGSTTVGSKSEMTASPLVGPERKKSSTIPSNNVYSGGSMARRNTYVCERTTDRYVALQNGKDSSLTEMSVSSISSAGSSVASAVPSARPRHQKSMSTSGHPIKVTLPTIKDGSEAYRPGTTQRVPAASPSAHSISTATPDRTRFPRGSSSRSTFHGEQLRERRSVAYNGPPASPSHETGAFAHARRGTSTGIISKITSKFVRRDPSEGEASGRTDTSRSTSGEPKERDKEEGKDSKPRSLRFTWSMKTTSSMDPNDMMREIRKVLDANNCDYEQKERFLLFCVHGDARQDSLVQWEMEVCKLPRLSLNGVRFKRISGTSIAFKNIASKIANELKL
Sequence of Aurora B (Q96GD4 whole entry): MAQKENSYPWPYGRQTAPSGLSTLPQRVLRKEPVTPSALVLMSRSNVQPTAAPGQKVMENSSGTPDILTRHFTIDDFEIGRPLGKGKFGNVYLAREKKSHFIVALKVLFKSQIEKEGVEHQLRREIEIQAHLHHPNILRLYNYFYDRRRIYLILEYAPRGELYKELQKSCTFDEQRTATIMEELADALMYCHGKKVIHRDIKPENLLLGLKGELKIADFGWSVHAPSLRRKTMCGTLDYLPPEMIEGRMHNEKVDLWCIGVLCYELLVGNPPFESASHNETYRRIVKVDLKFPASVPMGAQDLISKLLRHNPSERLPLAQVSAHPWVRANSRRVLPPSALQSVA

- MELK kinase activity more sensitive than that of Aurora B [1]: 20 fold
- Selectivity for MELK over NUAK1 [2]: preferentially targets MELK
- Selectivity for MELK over MARK1 [3]: preferentially targets MELK
- IC50 [6]: 10.8 nM and 10.5 nM
SMILES: CN(C)Cc1ccc(-n2c(=O)ccc3cnc4ccc(-c5cc(Cl)c(O)c(Cl)c5)cc4c32)cc1 [THZ-4-63-1]
- Mitotic cell death [4]: efficiently induced mitotic cell death
- Cells undergoing mitotic slippage [5]: nearly half
